Read-outs that look alike come from different tables or passages of the source.
Key:
[1] = system: prepubertal children with achondroplasia; conditions: 50 and 100 μg/kg vs placebo, 52 weeks
Method: In the phase 2 study reported in Example 4, X-rays of the hand were taken at the placebo group (6 patients assessed), cohort 3, 50 μg/kg (9 patients assessed) and cohort 4, 100 μg/kg (7 patients assessed) and the Hand Metacarpal/Phalangeal Profile (MCPP) was assessed.

[2] = system: prepubertal children with achondroplasia; conditions: for Overall Scoliosis Incidence, Baseline: baseline (prior to treatment)
Method: X-rays (radiographs) were taken from subjects in the placebo group and cohort 4 in the Phase 2 Study trials, including those at the thoracolumbar spine (lateral and anterior-posterior/posterior-anterior (AP/PA)) and lower extremity (AP). The lateral X-rays (taken from the placebo group and the 100 μg/kg (cohort 4 group) at baseline and after 52 weeks of treatment were analyzed.
Methodology: From the spine radiographs, aspects related to spinal stenosis, spinal curvature, and spinal height were measured. To assess the size of the spinal canal in the lumbar region (L1-L5), which is smaller in ACH, interpedicular distance (IPD) and pedicle width (PW) are measured on the anterior-posterior/posterior-anterior (AP/PA) and lateral radiographs, respectively. At each level of the lumbar spine, IPD is measured as the distance between the most medial aspects of the pedicles of the spinal canal, and PW is measured from the posterior vertebral body line to the posterior laminar line. Scoliosis is assessed by measuring Cobb angles in the proximal thoracic, main thoracic, and lumbar regions of the AP/PA spine radiograph. On the lateral spine radiograph, Cobb angles for kyphosis are assessed in the thoracic (TK) and thoracolumbar (TLK) region and for lordosis in the lumbar region (LL). Spinal heights (both thoracic and total) are measured on the AP/PA spine radiograph. • Scoliosis: Cobb angles of the proximal thoracic (T1-T3), main thoracic (T2-L1), and lumbar (L1-L5) regions • Kyphosis: Cobb angles of the thoracic (T5-T12, TK) and thoracolumbar (T10-L2, TLK) regions • Lordosis: Cobb angles of the lumbar (L1-L5, LL) region • Thoracic spine height (T1 to T12) and Total spine height (T1 to S1)
As many of these parameters vary naturally during growth, published normative data from both healthy and ACH populations are being utilized to calculate Z-scores where possible. For spine kyphosis, data from Lee et al., 2012 (Journal of spinal disorders & techniques. 2012; 25(8):E259-63) and Abousamra et al. 2019 (Spine Deform. 2019 January; 7(1):163-170) were used to calculate Z-scores based on data from healthy and ACH children.
A decrease of the (Posterior Height/Middle Width) ratio is indicative of a normalization of vertebral morphology.

[3] = system: binding antibodies against CNP-38 (and CNP-22)
Method: All subjects in the trial are being monitored for binding and, if relevant, neutralizing antibodies to CNP. […] Samples are collected in all subjects at screening visit, prior to initial dose, and post-dose at 1, 3, 6, 9 months+every 3 months for the duration of the study. Samples are analyzed using a fully validated anti-CNP antibody assay.
Prior to analysis of clinical samples, the assay was fully validated following regulatory requirements from both EMAA and FDA. In this approach, biotinylated and ruthenylated CNP-38 were prepared as a master mix. Samples were incubated at minimum required dilution (MRD) in the master mix to form complex and then plated on an MSD streptavidin plate where the biotinylated CNP-38 could also bind. The samples were then detected by the ruthenium labelled CNP-38 within the bound complexes, using an MSD 5600 plate reader. The presence of anti-drug antibody present was determined by comparing the signal to a statistically derived threshold, the assay cut point.

[4] = Method: A population PK model was used to characterize the sparse PK data.
Blood samples for determination of CNP-38 were acidified immediately after collection, using citrate acid buffer, to stabilize the prodrug in the sample thereby avoiding further liberation of CNP-38 from the prodrug. CNP-38 was determined in plasma (heparin) following protein precipitation and solid phase extraction and analyzed using liquid chromatography and tandem mass spectrometry detection. CNP-38 (38 amino acid peptide) was used as reference material and CNP-38 labelled with deuterium (D30-CNP-38) as internal standard (IS). Positive ions were monitored in multiple-reaction monitoring mode. The quantification was performed using the peak area ratios of analyte versus IS. The calibration curve fitting was done by 1/concentration-weighted linear regression.
During the trial, sparse blood samples were collected at different time points in the dosing interval, and the concentration of free CNP-38 was determined using the methodology described in example 6.
The values are provided as pmol/L CNP-38. […] The lower value in the range is the lowest free CNP-38 concentration, also referred to as the trough level or trough concentration. The number of subjects contributing with observations at the specified time interval are: 4, 8, 10 and 6 for the 6, 20, 50 and 100 μg/kg dose groups, respectively.

[5] = 50 and 100 μg/kg vs placebo, 52 weeks
[6] = cohorts 3 and 4 vs placebo, 52 weeks, initial data
[7] = single patient, after 52 weeks treatment
[8] = single patient, after 52 weeks treatment (100 μg/kg/week)
[9] = single patient, week 52, 100 μg/kg/week

## Navepegritide [Compound (1)]
[1]
  hand length: clear trend for dose dependent increase
[2]; 100 μg/kg/week, n 5, p < 0.05 vs placebo (ANCOVA), placebo −0.19 (0.318)
  TLK Z-score (Healthy), Week 52 Change from Baseline (Mean ± SD): −1.004 (0.614)
[2]; 100 μg/kg/week, n 6, p < 0.05 vs placebo (ANCOVA), placebo −0.052 (0.242)
  TLK Z-score (ACH), Week 52 Change from Baseline (Mean ± SD): −0.416 (0.412)
[2]; 100 μg/kg/week, n 6, placebo −[…] (2.61)
  TLK, Week 52 Change from Baseline (Mean ± SD): −7.17 (4.94) degrees
[2]; [5]
  interpedicular distance (IPD): no clear effect
  pedicular width (PW): trend for patients on treatment to have an increase
[2]; Cohort 3, 50 μg/kg
  Overall Scoliosis Incidence, After 52 weeks of Treatment: 0 out of 9
  Overall Scoliosis Incidence, Baseline: 3 out of 9
[2]; Cohort 4, 100 μg/kg
  Overall Scoliosis Incidence, After 52 weeks of Treatment: 1 out of 9
  Overall Scoliosis Incidence, Baseline: 3 out of 9
[2]; cohort 4 after 52 weeks of treatment
  thoracolumbar kyphosis: statistically significant reduction
[2]; [6]
  kyphosis Cobb Angle: trend for a dose dependent reduction
  scoliosis main thoracic Cobb Angle: trend for a dose dependent reduction
[2]; phase 2 and open label extension trial
  lumbar lordosis: slight trend for an increase
[2]; single patient one, baseline
  Patient Angle, thoracic kyphosis (TK): 11.6 degrees
[2]; [7]
  L1 vertebra LW, change from baseline: Δ4.1 mm
  L1 vertebra MH, change from baseline: Δ1.4 mm
  L1 vertebra MW, change from baseline: Δ5.9 mm
  L1 vertebra PH, change from baseline: Δ1.5 mm
[2]; [8]
  L1 vertebra LW (Lower Width): 22.9 mm
  L1 vertebra MH (Middle Height): 15.0 mm
  L1 vertebra MW (Middle Width): 14.6 mm
  L1 vertebra PH (Posterior height): 15.8 mm
  L1 vertebra PH/MW: 108 mm
[2]; single patient, after 52 weeks treatment, [~80@T12/12]
  L1 vertebra PH/MW, change from baseline: Δ−56 [~80@T12/12] mm
[2]; single patient, baseline
  L1 vertebra LW (Lower Width): 18.8 mm
  L1 vertebra MH (Middle Height): 13.6 mm
  L1 vertebra MW (Middle Width): 8.7 mm
  L1 vertebra PH (Posterior height): 14.3 mm
  L1 vertebra PH/MW: 164 mm
  Patient Angle, lumbar lordosis (LL): 58.3 degrees
  Patient Angle, thoraco-lumbar kyphosis (TLK): 24.0 degrees
[2]; single patient, baseline vs 52 weeks of treatment
  apical wedging and shape of L1 vertebra on radiographs: noted decrease in apical wedging and normalization of the L1 vertebra
[2]; single patient, baseline, reference population 3 (Abousamra 2019) 20.0 ± 12.5
  Patient Z-score TK3: −0.7
[2]; single patient, baseline, reference population 3, 18.5 ± 13.2
  Patient Z-score TLK3: 0.4
[2]; single patient, baseline, reference population 3, 66.7 ± 17.5
  Patient Z-score LL3: −0.5
[2]; single patient, baseline, reference population 5.0 ± 7.2
  Patient Z-score TLK2: 2.6
[2]; single patient, baseline, reference population 31.6 ± 9.2
  Patient Z-score TK2: −2.2
[2]; single patient, baseline, reference population 44.4 ± 9.4
  Patient Z-score LL2: 1.5
[2]; [9]
  Patient Angle, lumbar lordosis (LL): 60.2 degrees
  Patient Angle, thoracic kyphosis (TK): 12.6 degrees
  Patient Angle, thoraco-lumbar kyphosis (TLK): 9.1 degrees
[2]; single patient, week 52, 100 μg/kg/week, reference 31.6 ± 9.2
  Patient Z-score TK2: −2.1
[2]; single patient, week 52, reference 5 ± 7.2
  Patient Z-score TLK2: 0.6
[2]; single patient, week 52, reference 44.4 ± 9.4
  Patient Z-score LL2: 1.7
[2]; single patient, week 52, reference population 3, 18.5 ± 12.0
  Patient Z-score TLK3: −0.6
[2]; single patient, week 52, reference population 3, 19.7 ± 13.2
  Patient Z-score TK3: −0.5
[2]; single patient, week 52, reference population 3, 66.0 ± 15.5
  Patient Z-score LL3: −0.4
[3]; 1 to 9 months of repeated weekly exposure
  anti-CNP binding antibodies: No anti-CNP binding antibodies have been detected
[3]; 57 patients followed for up to 65 weeks
  treatment emergent anti-CNP antibodies: no treatment emergent anti-CNP antibodies were detected
[3]; samples at 1, 3, 6, 9 months + every 3 months
  post-dose samples, anti-CNP antibodies: confirmed negative
[4]; 6 μg/kg/week
  Estimated half-life for free CNP: 101 h
[4]; 6 μg/kg/week, 6.5 to 7.5 days after last dose
  Free CNP-38, Mean (SD): 1.7 (0.2) pmol/L
[4]; 6 μg/kg/week, samples 6.5 to 7.5 days after last dose (trough), 4 subjects
  Free CNP-38, Median (range): 1.7 (1.4-1.9) pmol/L
[4]; 20 μg/kg/week
  Estimated half-life for free CNP: 106 h
[4]; 20 μg/kg/week, 6.5 to 7.5 days after last dose
  Free CNP-38, Mean (SD): 2.9 (9.7) pmol/L
[4]; 20 μg/kg/week, 6.5 to 7.5 days after last dose, 8 subjects
  Free CNP-38, Median (range): 2.9 (1.6-4.2) pmol/L
[4]; 50 μg/kg/week
  Estimated half-life for free CNP: 108 h
[4]; 50 μg/kg/week, 6.5 to 7.5 days after last dose
  Free CNP-38, Mean (SD): 7.2 (2.5) pmol/L
[4]; 50 μg/kg/week, 6.5 to 7.5 days after last dose, 10 subjects
  Free CNP-38, Median (range): 6.5 (4-16.9) pmol/L
[4]; 100 μg/kg/week
  Estimated half-life for free CNP: 110 h
[4]; 100 μg/kg/week, 6.5 to 7.5 days after last dose
  Free CNP-38, Mean (SD): 14 (4.2) pmol/L
[4]; 100 μg/kg/week, 6.5 to 7.5 days after last dose, 6 subjects
  Free CNP-38, Median (range): 13.8 (9.4-23) pmol/L
[4]; 150 μg/kg/week, simulated with a population PK model
  Free CNP-38, Median (range): 22.3 (19.7-25) pmol/L
[4]; 6, 20, 50 and 100 μg/kg
  exposure across dosing cohorts: dose related increase in exposure
[4]; BW 10 kg, 6 μg/kg/week
  Predicted median free CNP Cmax, Median (9-95th percentile): 2.9 (1.6-5.0) pg/ml
[4]; BW 10 kg, 20 μg/kg/week
  Predicted median free CNP Cmax, Median (9-95th percentile): 10.4 (5.8-18.9) pg/ml
[4]; BW 10 kg, 50 μg/kg/week
  Predicted median free CNP Cmax, Median (9-95th percentile): 26.5 (15.2-48.1) pg/ml
[4]; BW 10 kg, 100 μg/kg/week
  Predicted median free CNP Cmax, Median (9-95th percentile): 53.1 (30.9-96.4) pg/ml
[4]; BW 35 kg, 6 μg/kg/week
  Predicted median free CNP Cmax, Median (9-95th percentile): 1.8 (1.1-3.3) pg/ml
[4]; BW 35 kg, 20 μg/kg/week
  Predicted median free CNP Cmax, Median (9-95th percentile): 6.6 (3.8-12.6) pg/ml
[4]; BW 35 kg, 50 μg/kg/week
  Predicted median free CNP Cmax, Median (9-95th percentile): 18.3 (10.3-31.5) pg/ml
[4]; BW 35 kg, 100 μg/kg/week
  Predicted median free CNP Cmax, Median (9-95th percentile): 36.6 (20.2-65.9) pg/ml
[4]; Cohort 1, 6 μg/kg, WEEK 0, 0.96 days post 1st dose
  Preliminary mean free CNP level: 1.86 pmol/L
[4]; Cohort 1, 6 μg/kg, WEEK 4, 27.98 days, all observations below LLOQ, set to LLOQ ([…])
  Preliminary mean free CNP level: 1.38 pmol/L
[4]; Cohort 1, 6 μg/kg, WEEK 8, 55.97 days
  Preliminary mean free CNP level: 1.68 pmol/L
[4]; Cohort 1, 6 μg/kg, WEEK 12, 79.02 days
  Preliminary mean free CNP level: 1.85 pmol/L
[4]; Cohort 1, 6 μg/kg, WEEK 26, 181.99 days
  Preliminary mean free CNP level: 1.48 pmol/L
[4]; Cohort 1, 6 μg/kg, WEEK 39, 271.94 days
  Preliminary mean free CNP level: 2.02 pmol/L
[4]; Cohort 1, 6 μg/kg, WEEK 52, 363.90 days
  Preliminary mean free CNP level: 1.58 pmol/L
[4]; Cohort 2, 20 μg/kg, WEEK 0, 1.01 days
  Preliminary mean free CNP level: 3.49 pmol/L
[4]; Cohort 2, 20 μg/kg, WEEK 4, 27.94 days
  Preliminary mean free CNP level: 3.27 pmol/L
[4]; Cohort 2, 20 μg/kg, WEEK 8, 56.27 days
  Preliminary mean free CNP level: 3.79 pmol/L
[4]; Cohort 2, 20 μg/kg, WEEK 12, 84.00 days
  Preliminary mean free CNP level: 3.84 pmol/L
[4]; Cohort 2, 20 μg/kg, WEEK 26, 182.00 days
  Preliminary mean free CNP level: 2.77 pmol/L
[4]; Cohort 2, 20 μg/kg, WEEK 39, 273.47 days
  Preliminary mean free CNP level: 5.19 pmol/L
[4]; Cohort 3, 50 μg/kg, WEEK 0, 1.00 days
  Preliminary mean free CNP level: 10.58 pmol/L
[4]; Cohort 3, 50 μg/kg, WEEK 4, 27.99 days
  Preliminary mean free CNP level: 7.29 pmol/L
[4]; Cohort 3, 50 μg/kg, WEEK 8, 56.00 days
  Preliminary mean free CNP level: 9.24 pmol/L
[4]; Cohort 3, 50 μg/kg, WEEK 12, 83.91 days
  Preliminary mean free CNP level: 7.62 pmol/L
[4]; Cohort 4, 100 μg/kg, WEEK 0, 0.99 days
  Preliminary mean free CNP level: 15.29 pmol/L
[4]; population PK model, weekly s.c. dosing
  half-life for free CNP: ~ 110 hours
[4]; weekly s.c. dosing
  exposure to free CNP: Sustained exposure to free CNP was observed

— patent US20260263563A1, “Method of Treatment of a Thoracolumbar Deformity in a Human Subject with Achondroplasia” (Ascendis Pharma Growth Disorders A/S, priority 2023, published 2026)
